18 compounds from PubChem BioAssay AID256 (DTP/NCI, 2004) can be followed below.

This experiment deals with CD2F1 mice, L1210 leukemia ip, survival T/C. The experiment can be described thus: NCI In Vivo Anticancer Drug Screen. Data for tumor model L1210 Leukemia (intraperitoneal) in CD2F1 (CDF1) mice. The settings on record: higher = longer survival. An outline of the steps: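 In this screen, transplantable tumors were grown in mice given either the compound or its vehicle. Results were expressed as the treated measurement relative to the control measurement.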

[1] abbreviates: endpoint: mean survival time, dose: 12.5 mg/kg/injection, schedule: Q01DX009 (ip), vehicle: saline with Tween-80.
Where [2] appears, read: endpoint: mean survival time, dose: 25.0 mg/kg/injection, schedule: Q01DX009 (ip), vehicle: saline with Tween-80.
The mark [3] stands for this setting: endpoint: mean survival time, dose: 100.0 mg/kg/injection, schedule: Q01DX009 (ip), vehicle: saline with Tween-80.
Setting [4] is: endpoint: mean survival time, dose: 200.0 mg/kg/injection, schedule: Q01DX009 (ip), vehicle: saline with Tween-80.
Where [5] appears, read: endpoint: mean survival time, dose: 400.0 mg/kg/injection, schedule: Q01DX009 (ip), vehicle: saline with Tween-80.
The mark [6] stands for this setting: endpoint: mean survival time, dose: 6.25 mg/kg/injection, schedule: Q01DX009 (ip), vehicle: other.
[7] abbreviates: endpoint: mean survival time, dose: 100.0 mg/kg/injection, schedule: Q01DX009 (ip), vehicle: other.
[8] abbreviates: endpoint: mean survival time, dose: 100.0 mg/kg/injection, schedule: Q04DX003 (ip), vehicle: saline with Tween-80.
Where [9] appears, read: endpoint: mean survival time, dose: 200.0 mg/kg/injection, schedule: Q04DX003 (ip), vehicle: saline with Tween-80.
[10] abbreviates: endpoint: mean survival time, dose: 400.0 mg/kg/injection, schedule: Q04DX003 (ip), vehicle: saline with Tween-80.

Structures are written as SMILES. Several values for one entry are separate records, joined by “and”; a condition that tells them apart may be missing. Equal entries are not always repeated. Toxic doses and inconclusive results are not listed.

For `O=c1nc(NCc2ccco2)ccn1C1OC(CO)C(O)C1O` (stereo not given), the T/C (endpoint: median survival time, dose: 12.5 mg/kg/injection, schedule: Q01DX005 (ip), vehicle: water) was 98 % of control; the T/C (endpoint: median survival time, dose: 25.0 mg/kg/injection, schedule: Q01DX005 (ip), vehicle: water) was 106 % of control; the T/C (endpoint: median survival time, dose: 50.0 mg/kg/injection, schedule: Q01DX005 (ip), vehicle: water) was 112 % of control; the T/C (endpoint: median survival time, dose: 100.0 mg/kg/injection, schedule: Q01DX005 (ip), vehicle: water) is 112 % of control; the T/C (endpoint: median survival time, dose: 200.0 mg/kg/injection, schedule: Q01DX005 (ip), vehicle: water) was 108 % of control.
Take `CC1CCCCCC(=O)c2c(O)cc(O)cc2CC(=O)O1` (stereo not given): the T/C (endpoint: mean survival time, dose: 100.0 mg/kg/injection, schedule: Q01DX001 (ip), vehicle: other) is 95 % of control; the T/C (endpoint: mean survival time, dose: 200.0 mg/kg/injection, schedule: Q01DX001 (ip), vehicle: other) is 118 % of control; the T/C (endpoint: mean survival time, dose: 400.0 mg/kg/injection, schedule: Q01DX001 (ip), vehicle: other) was 100 % of control.
Consider `CCCCOC(=O)c1ccc(OC(=O)NCCC)cc1`, for which the T/C (endpoint: mean survival time, dose: 50.0 mg/kg/injection, schedule: Q01DX009 (ip), vehicle: Klucel (hydroxypropylcellulose) (HPC)) is 102 % of control; the T/C (endpoint: mean survival time, dose: 100.0 mg/kg/injection, schedule: Q01DX009 (ip), vehicle: Klucel (hydroxypropylcellulose) (HPC)) is 108 % of control; the T/C (endpoint: mean survival time, dose: 200.0 mg/kg/injection, schedule: Q01DX009 (ip), vehicle: Klucel (hydroxypropylcellulose) (HPC)) was 100 % of control.
`CS(=O)(=O)c1cc([N+](=O)[O-])cc([N+](=O)[O-])c1Cl`: the T/C was 95 % of control (endpoint: mean survival time, dose: 2.5 mg/kg/injection, schedule: Q01DX009 (ip), vehicle: saline with Tween-80); 91 % of control (endpoint: mean survival time, dose: 5.0 mg/kg/injection, schedule: Q01DX009 (ip), vehicle: saline with Tween-80); 97 % of control (endpoint: mean survival time, dose: 5.0 mg/kg/injection, schedule: Q04DX003 (ip), vehicle: saline with Tween-80); 96 % of control (endpoint: mean survival time, dose: 10.0 mg/kg/injection, schedule: Q01DX009 (ip), vehicle: saline with Tween-80); 100 % of control (endpoint: mean survival time, dose: 10.0 mg/kg/injection, schedule: Q04DX003 (ip), vehicle: saline with Tween-80).
For the compound `Cc1ccc(S(=O)(=O)OCCOc2ccc(C(C)(C)CC(C)(C)C)cc2)cc1`, the T/C is 93 % of control (endpoint: mean survival time, dose: 100.0 mg/kg/injection, schedule: Q01DX001 (ip), vehicle: Klucel (hydroxypropylcellulose) (HPC)); 98 % of control (endpoint: mean survival time, dose: 200.0 mg/kg/injection, schedule: Q01DX001 (ip), vehicle: Klucel (hydroxypropylcellulose) (HPC)); 94 % of control (endpoint: mean survival time, dose: 400.0 mg/kg/injection, schedule: Q01DX001 (ip), vehicle: Klucel (hydroxypropylcellulose) (HPC)).
For the compound `S=c1[nH]cc2cnccn12`, the T/C reads like this: under setting [1], 92 % of control and 103 % of control; under setting [2], 97 % of control and 100 % of control; (endpoint: mean survival time, dose: 50.0 mg/kg/injection, schedule: Q01DX009 (ip), vehicle: saline with Tween-80) 95 % of control and 105 % of control; under setting [3], 93 % of control and 100 % of control; under setting [4], 104 % of control; under setting [5], 97 % of control.
For the compound `O=C(c1ccc(-c2ccccc2)cc1)C1CCCCC1`, the T/C was 94 % of control under setting [3], 97 % of control under setting [4] and 86 % of control under setting [5].
With `O=C(O)C1(C(=O)O)CCC1.[NH2-].[NH2-].[Pt+2]`, the T/C by setting is: (endpoint: mean survival time, dose: 3.12 mg/kg/injection, schedule: Q01DX009 (ip), vehicle: dextrose) 110 % of control; (endpoint: mean survival time, dose: 6.25 mg/kg/injection, schedule: Q01DX009 (ip), vehicle: dextrose) 118 % of control; under setting [6], 107 % of control; (endpoint: mean survival time, dose: 12.5 mg/kg/injection, schedule: Q01DX009 (ip), vehicle: dextrose) 110 % of control; under setting [1], 108 % of control; (endpoint: mean survival time, dose: 12.5 mg/kg/injection, schedule: Q04DX003 (ip), vehicle: water) 109 % of control. For the same compound, the T/C under setting [2] was 117 % of control; the T/C (endpoint: mean survival time, dose: 25.0 mg/kg/injection, schedule: Q01DX009 (ip), vehicle: water) is 152 % of control; the T/C (endpoint: mean survival time, dose: 25.0 mg/kg/injection, schedule: Q04DX003 (ip), vehicle: water) was 112 % of control; the T/C (endpoint: mean survival time, dose: 50.0 mg/kg/injection, schedule: Q01DX009 (ip), vehicle: dextrose) is 113 % of control; the T/C under setting [7] was 90 % of control; the T/C under setting [3] is 96 % of control. Moreover, the T/C reads like this: (endpoint: mean survival time, dose: 100.0 mg/kg/injection, schedule: Q04DX003 (ip), vehicle: water) 105 % of control; (endpoint: median survival time, dose: 60.0 mg/kg/injection, schedule: Q01DX009 (ip), vehicle: clinical formulation) 109 % of control; (endpoint: median survival time, dose: 90.0 mg/kg/injection, schedule: Q01DX009 (ip), vehicle: dextrose) 124 % of control.
For `COc1cc(/C=N/NC(=O)COc2ccccc2)ccc1O`, the T/C under setting [3] was 89 % of control, the T/C under setting [4] was 89 % of control and the T/C under setting [5] was 94 % of control.
For `NCc1ccc(OCc2nc(N)nc(N)c2-c2ccc(Cl)c(Cl)c2)cc1`, the T/C is, setting by setting: (endpoint: mean survival time, dose: 100.0 mg/kg/injection, schedule: Q01DX001 (ip), vehicle: saline with Tween-80) 92 % of control; (endpoint: mean survival time, dose: 200.0 mg/kg/injection, schedule: Q01DX001 (ip), vehicle: saline with Tween-80) 91 % of control.
Take `COc1ccc(C=NC2C(OC(C)=O)OC(COC(C)=O)C(OC(C)=O)C2OC(C)=O)cc1` (stereo not given): the T/C is, setting by setting: under setting [6], 96 % of control; (endpoint: mean survival time, dose: 12.5 mg/kg/injection, schedule: Q01DX009 (ip), vehicle: other) 96 % of control; (endpoint: mean survival time, dose: 25.0 mg/kg/injection, schedule: Q01DX009 (ip), vehicle: other) 93 % of control; (endpoint: mean survival time, dose: 50.0 mg/kg/injection, schedule: Q01DX009 (ip), vehicle: other) 94 % of control; under setting [7], 96 % of control.
For the compound `Cc1cc(Cl)ccc1[NH-].Cc1cc(Cl)ccc1[NH-].[Cl][Pt+2][Cl]`, the T/C (endpoint: mean survival time, dose: 25.0 mg/kg/injection, schedule: Q04DX003 (ip), vehicle: saline with Tween-80) is 100 % of control; the T/C (endpoint: mean survival time, dose: 50.0 mg/kg/injection, schedule: Q04DX003 (ip), vehicle: saline with Tween-80) is 94 % of control; the T/C under setting [8] is 94 % of control; the T/C under setting [9] is 94 % of control; the T/C under setting [10] was 97 % of control.
With `CCCCCCCCCCCCNCCC(=O)O`, the T/C by setting is: (endpoint: mean survival time, dose: 75.0 mg/kg/injection, schedule: Q01DX001 (ip), vehicle: saline) 93 % of control; (endpoint: mean survival time, dose: 150.0 mg/kg/injection, schedule: Q01DX001 (ip), vehicle: saline) 93 % of control.
Consider `Cc1cccc(/C=N\OCCc2ccccc2)n1`, for which the T/C is 94 % of control under setting [3]; 100 % of control under setting [8]; 98 % of control under setting [4]; 96 % of control under setting [9]; 93 % of control under setting [5]; 91 % of control under setting [10].
On to `O=C1c2ccccc2C(=O)c2c(O)c3c(c(O)c21)CCCC3O` (stereo not given), for which the T/C is 101 % of control (endpoint: mean survival time, dose: 0.05 mg/kg/injection, schedule: Q01DX001 (ip), vehicle: saline); 98 % of control (endpoint: mean survival time, dose: 0.1 mg/kg/injection, schedule: Q01DX001 (ip), vehicle: saline); 101 % of control (endpoint: mean survival time, dose: 0.2 mg/kg/injection, schedule: Q01DX001 (ip), vehicle: saline); 101 % of control (endpoint: mean survival time, dose: 0.4 mg/kg/injection, schedule: Q01DX001 (ip), vehicle: saline); 101 % of control (endpoint: mean survival time, dose: 0.8 mg/kg/injection, schedule: Q01DX001 (ip), vehicle: saline).
As to `N#CC[CH2][Sn]([c]1ccccc1)([c]1ccccc1)[c]1ccccc1`, the T/C reads like this: under setting [8], 94 % of control; under setting [9], 91 % of control; under setting [10], 89 % of control.
`C=C1C(=O)OC2/C=C(\C)CC/C=C(/C)CC(OC(=O)/C(=C/CO)CO)C12` (stereo not given): the T/C is, setting by setting: (endpoint: mean survival time, dose: 10.0 mg/kg/injection, schedule: Q01DX009 (ip), vehicle: Klucel (hydroxypropylcellulose) (HPC)) 96 % of control; (endpoint: mean survival time, dose: 20.0 mg/kg/injection, schedule: Q01DX009 (ip), vehicle: Klucel (hydroxypropylcellulose) (HPC)) 100 % of control; (endpoint: mean survival time, dose: 40.0 mg/kg/injection, schedule: Q01DX009 (ip), vehicle: Klucel (hydroxypropylcellulose) (HPC)) 95 % of control.
Regarding `CCCCCCCCCCCC[Si](CCCCCCCCCCCC)(c1ccccc1)c1ccccc1`, the T/C is, setting by setting: under setting [8], 103 % of control; under setting [9], 93 % of control; under setting [10], 93 % of control.
